Consider four compounds from the NIST ThermoML archive (doi:10.1016/j.fluid.2005.11.020).

For this series the following is noted: Liquid; for mass density: 293.2 K, 101.33 kPa, Vibrating tube method; for vapor or sublimation pressure: Ebulliometric method (Recirculating still).

“And” between values parts separate entries of the source, which are not always exact repeats. Identical values can stand only once. Numbers after ± are expanded uncertainties.

As for `Brc1ccccc1` [bromobenzene], the mass density is 1495.28 ± 0.48 kg/m3. For the same compound, the “vapor or sublimation pressure” value (428.8 K) is reported as 100.91 ± 1 kPa.
Consider `Clc1ccccc1` [chlorobenzene], for which the mass density turned out to be 1106.07 ± 0.3 kg/m3. The “vapor or sublimation pressure” value (404.6 K) was found to be 100.82 ± 1 kPa.
For `Fc1ccccc1` [fluorobenzene], the mass density amounted to 1022.27 ± 0.27 kg/m3. Where the note is “357.5 K”, the “vapor or sublimation pressure” value is recorded as 100.55 ± 1 kPa.
`CCCCCCC` [heptane]: the mass density is 683.53 ± 0.27 kg/m3. The “vapor or sublimation pressure” value (371.3 K) was 100.91 ± 1 kPa and 100.6 ± 1 kPa. Moreover, the “vapor or sublimation pressure” value (371.4 K) was 100.95 ± 1 kPa.
